System: HCV
Assay: Viral load in treatment-naïve patients on Compound 1 and ritonavir for 3 days, then added peginterferon and ribavirin, grouped by IL28B PM02 methylation
Assay type: in vivo, human
Settings: FIG. 3
Description: Twenty-one (21) treatment-naïve patients were included in the study. The patients received Compound 1 and ritonavir for three days followed by the addition of peginterferon and ribavirin for a total of 12 weeks of combination treatment. DNA samples obtained prior to the initiation of treatment were analyzed for methylation in a CpG island in the IL28B promoter corresponding to SEQ ID NO:2 (PM02). Subjects were grouped based on methylation level of PM02. Eleven (11) subjects had methylation values below 45% (diamonds). Ten (10) subjects had methylation values above 45% (squares). Viral load was assessed on Day 1 (“D1”), Day 2 (“D2”), Day 3 (“D3”), Day 4 (“D4”), Day 5 (“D5”), and Day 10 (“D10”) of treatment.

For Cc1cnc(C(=O)N[C@H]2CCCCC/C=C\[C@@H]3C[C@@]3(C(=O)NS(=O)(=O)C3CC3)NC(=O)[C@@H]3C[C@@H](Oc4nc5ccccc5c5ccccc45)CN3C2=O)cn1 [Compound 1, (2R,6S,13aS,14aR,16aS,Z)—N-(cyclopropylsulfonyl)-6-(5-methylpyrazine-2-carboxamido)-5,16-dioxo-2-(phenanthridin-6-yloxy)-1,2,3,5,6,7,8,9,10,11,13a,14,14a,15,16,16a-hexadecahydrocyclopropa[e]pyrrolo[1,2-a][1,4]diazacyclopentadecine-14a-carboxamide], the “reduction in viral load” value (after 10 days of treatment, Compound 1 + ritonavir 3 days, then peginterferon and ribavirin added, both groups (PM02 methylation below 45% n=11, above 45% n=10)) was “dramatic reduction in viral load” and the “effect of PM02 methylation status on response” value (treatment-naïve patients, 10 days of treatment) was “does not affect response”.

Reference: patent US20160237491A1, “METHODS FOR TREATING HCV” (AbbVie Inc., priority 2013, published 2016)
